Experimental data from patent US5395947A, “Platinum(II) complex and processes for preparing the same” (Sunkyong Industries, Ltd., priority 1991, dated 1995).

Key:
[1] = test system: murine leukemia L1210 cells; experiment: Growth inhibition test on cultured murine leukemia L1210 cells; type: cell-based; conditions: 48 hours, 37° C., Trypan blue viability
Description: 1. Growth inhibition test on cultured murine leukemia L1210 cells
Murine leukemia L1210 cells(1×10^5) were treated with various concentrations of the compounds prepared in the above examples in RPMI 1640 medium supplemented with 10% fetal calf serum, and cultured in a 5% CO2 humidified incubator at 37° C. for 48 hours. Their viability, estimated by staining with 0.17% Trypan blue, was compared with that of control cells cultured in the identical medium without the compounds.

murine leukemia L1210 = experiment: Antitumor activity test on murine leukemia L1210 in vivo; set-up: species or system male BDF1 mice; conditions: days 1, 5, 9
Description: 2. Antitumor activity test on murine leukemia L1210 in vivo
Murine leukemia L1210 cells were maintained in the peritoneal cavities of 6-week-old male DBA/2 mice by weekly transfer in accordance with the procedure described in cancer chemotherapy Reports, Part 3, 3(2), 7 (1972). Specifically, 1×10^6 leukemia cells were inoculated into the abdominal cavities of 6-week-old male BDF1 mice weighing 21±3 g on day 0. Each treatment group consisted of seven mice. The test compounds were dissolved or suspended in 0.5% carboxymethyl cellulose(CMC)solution (in water) and were administered intraperitoneally on days 1, 5, and 9 relative to the tumor inoculation.
Thirty mice of 6-week-old male BDF1 weighing 21±3 g were used as the control group, which were injected with 0.5% CMC solution only in the same manner as above.
Anti-tumor activities of the compounds were evaluated in terms of the T/C % values calculated from the mean survival time(T) of the compound-treated group over that(C) of the control group. [formula]

[2] = Test for water solubility; type: physicochemical
Excerpt: 3. Test for water solubility
A standard plot of UV absorbance(220 nm) vs. concentration was made; and employed to determine water-solubility.
The mixture was then passed through a 0.45 micron disposable membrane filter before dilution and UV measurement.

| SMILES | IC50 (concentration required for 50% inhibition of growth) [1] [µg/mL] | T/C (%) (murine leukemia L1210; 3.1 mg/kg i.p.) | T/C (%) (murine leukemia L1210; 6.2 mg/kg i.p.) | T/C (%) (murine leukemia L1210; 12.5 mg/kg i.p.) | T/C (%) (murine leukemia L1210; 25 mg/kg i.p.) | T/C (%) (murine leukemia L1210; 50 mg/kg i.p.) | Solubility in water ([2]; water) [µg/mL] | Solubility in water ([2]; 20° C.) [µg/mL] | T/C (%) (murine leukemia L1210; 100 mg/kg i.p.) |
| --- | --- | --- | --- | --- | --- | --- | --- | --- | --- |
| CCCC1OC2C[NH2+][Pt-2]3([NH2+]CC2O1)[O]CC(=O)[O]3 [Example 10, (glycolato-O,O')[(4R,5R)-4,5-bis(aminomethyl)-2-propyl-1,3-dioxolane]platinum(II)] | 0.13 | 154 | 161 | 201 | toxic | toxic | > 30000 |  |  |
| CC(C)CC1OC2C[NH2+][Pt-2]3([NH2+]CC2O1)[O]CC(=O)[O]3 [Example 11, (glycolato-O,O')[(4R,5R)-4,5-bis(aminomethyl)-2-isobutyl-1,3-dioxolane]platinum(II)] | 0.10 | 102 | 146 | 191 | toxic | toxic | 4600 |  |  |
| CC(C)(C)C1OC2C[NH2+][Pt-2]3([NH2+]CC2O1)[O]CC(=O)[O]3 [Example 12, (glycolato-O,O')[(4R,5R)-4,5-bis(aminomethyl)-2-tert-butyl-1,3-dioxolane]platinum(II)] | 0.10 | 104 | 136 | 154 | 167% | toxic | 2100 |  |  |
| CC1[O][Pt][O]C1=O.NCC1OC2(CCCCC2)OC1CN [Example 16, (L-lactato-O,O'){cyclohexanespiro-2'-[(4'R,5'R)-4',5'-bis(aminomethyl)-1',3'-dioxolane]}platinum(II)] | 0.34 |  |  | 204 | 227% | toxic | 3800 |  |  |
| CCC1OC2C[NH2+][Pt-2]3([NH2+]CC2O1)[O]C(=O)C1(CCC1)C(=O)[O]3 [Example 25, cis-cyclobutane-1,1-dicarboxylato[(4S,5S)-4,5-bis(aminomethyl)-2-ethyl-1,3-dioxolane]platinum(II)] | 1.02 |  |  |  |  |  |  | 11800 |  |
| CC1(C)OC2C[NH2+][Pt-2]3([NH2+]CC2O1)[O]C(=O)C1(CCC1)C(=O)[O]3 [Example 27, cis-cyclobutane-1,1-dicarboxylato[(4S,5S)-4,5-bis(aminomethyl)-2,2-dimethyl-1,3-dioxolane]platinum(II)] | 2.36 |  | 112 | 106 | 124% | 148% | 1900 |  | 142% |
| CC(C)C1OC2C[NH2+][Pt-2]3([NH2+]CC2O1)[O]C(=O)C1(CCC1)C(=O)[O]3 [Example 28, cis-cyclobutane-1,1-dicarboxylato[(4R,5R)-4,5-bis(aminomethyl)-2-isopropyl-1,3-dioxolane]platinum(II)] | 1.14 |  | 113 | 106 | 126% | 133% | 2100 |  | 130% |
| CC(C)C1OC2C[NH2+][Pt-2]3([NH2+]CC2O1)[O]C(=O)C1(CCC1)C(=O)[O]3 [Example 29, cis-cyclobutane-1,1-dicarboxylato[(4S,5S)-4,5-bis(aminomethyl)-2-isopropyl-1,3-dioxolane]platinum(II)] | 2.12 |  |  |  |  |  |  | 2000 |  |
| O=C1[O][Pt-2]2([NH2+]CC3OC4(CCCC4)OC3C[NH2+]2)[O]C(=O)C12CCC2 [Example 31, cis-cyclobutane-1,1-dicarboxylato[(4S,5S)-4,5-bis(aminomethyl)-1,3-dioxolane-2-spiro-1'-cyclopentane]platinum(II)] | 1.75 |  | 102 | 109 | 94% | 106% | 1900 |  | 117% |
| O=C1[O][Pt-2]2([NH2+]CC3OC4(CCCCC4)OC3C[NH2+]2)[O]C(=O)C12CCC2 [Example 32, cis-cyclobutane-1,1-dicarboxylato[(4R,5R)-4,5-bis(aminomethyl)-1,3-dioxolane-2-spiro-1'-cyclohexane]platinum(II)] | 1.05 |  |  |  |  |  |  | 900 |  |
| CCC1OC2C[NH2+][Pt-2]3([NH2+]CC2O1)[O]C(=O)C(CC)C(=O)[O]3 [Example 43, cis-ethylmalonato[(4R,5R)-4,5-bis(aminomethyl)-2-ethyl-1,3-dioxolane]platinum(II)] | 0.72 |  |  |  | 197% | 245% | 7900 |  | toxic |
| CCC1C(=O)[O][Pt-2]2([NH2+]CC3OC(C(C)C)OC3C[NH2+]2)[O]C1=O [Example 44, cis-ethylmalonato[(4R,5R)-4,5-bis(aminomethyl)-2-isopropyl-1,3-dioxolane]platinum(II)] | 0.47 |  |  |  | 137% | 169% |  | 7800 | 243% |
| CCC1C(=O)[O][Pt]2([NH]C[C@H]3OC4(CCCC4)O[C@@H]3C[NH]2)[O]C1=O (stereo partly drawn) [Example 45, cis-ethylmalonato[(4R,5R)-4,5-bis(aminomethyl)-1,3-dioxolane-2-spiro-1'-cyclopentane]platinum (II)] | 1.40 |  |  |  | 147% | 232% | 2700 |  | 216% |
| NC[C@@H]1OC2(CCCCC2)O[C@H]1CN.O=C1[O][Pt][O]C(=O)C12CCC2 [Example 46, cis-cyclobutane-1,1-dicarboxylato[(4S, 5S)-4,5-bis(aminomethyl)-1,3-dioxolane-2-spiro-1'-cyclohexane]platinum(II)] | 2.23 |  |  |  |  |  |  | 900 |  |
| N.N.O=C([O-])C1(C(=O)[O-])CCC1.[Pt+2] [carboplatin, reference compound] | 1.98 |  | 107 | 125 | 148% | 196% | 10000 |  | 197% |
